# Assay results published in paper PMC6320938 (Molecules, 2018).
# How the values were obtained:
# [1] = set-up: method as in PMID 27019565; settings: oral raw vs wheat bran-processed Atractylodis Rhizoma; cited from earlier work
# [2] = in vivo; settings: for AUC(0-t): AUC0–t; for AUC(0-inf): AUC0–∞; for MRT inf: MRT0–∞
# From the text: The validated UPLC-MS/MS method was used to measure atractylenolides I, II, and III, and atractyloside A simultaneously in rat plasma after oral administration of raw and wheat bran-processed Atractylodis Rhizoma at a dose of 3.75 g/kg. The integrated pharmacokinetics data were estimated by Drug and Statistics 3.0 (BioGuider Medicinal Technology Co. Ltd, Shanghai, China).
# A UPLC system (Acquity, Waters, Milford, MA, USA) coupled with a mass spectrometer detector (XEVO-TQ-S, Waters) was used. The separation was performed on an Acquity UPLC BEH C18 column (Waters; 2.1 × 100 mm, 1.7 µm). The mobile phase consisted of acetonitrile (solution A) and ultrapure water with 0.1% methanoic acid (solution B). […] The mobile phase was delivered at a flow rate of 0.30 mL/min. The column and autosampler temperature were maintained at 40 and 10 °C, respectively. The injection volume was 2 µL and the eluent was detected by mass spectrometry with electrospray ionization (ESI) in positive scan mode. The optimized detector parameters were as follows: positive ESI with a capillary voltage of 3.0 kV; desolvation temperature of 400 °C; desolvation gas flow of 800 L/h, core gas flow of 150 L/h, and nebulizer gas flow of 7 bar. Selected multiple reaction monitoring (MRM), using the precursor to product ion combinations of m/z 233.3→187.2, 231.2→185.2, 249.2→231.2, 471.3→203.2, 151.9→110.16, was used to detect atractylenolides I, II, and III, atractyloside A, and the internal standard (IS), acetaminophen, respectively (Table 8).
# Plasma samples were extracted by methanol precipitation. The plasma sample (200 µL) was spiked with IS solution (100 µL, 52 ng/mL), extracted with methanol (800 µL) by vortexing for 2 min, centrifuged at 17,108× g for 10 min, and then evaporated to dryness under a gentle stream of nitrogen. The residue was reconstituted in the mobile phase (100 µL), vortexed for 1 min, and centrifuged at 17,108× g for 10 min. Finally, the supernatant (3 µL) was injected into the UPLC-MS/MS system for analysis.
# Ten rats were randomly divided into two groups (five per group). The two groups were orally administered raw Atractylodis Rhizoma at a dose of 3.75 g/kg (equal to 0.48, 0.6, 0.68, and 3.11 mg/kg of atractylenolides I, II, and III, and atractyloside A, respectively), and wheat bran-processed Atractylodis Rhizoma extract solution (equal to 0.46, 0.75, 0.56, and 3.03 mg/kg of atractylenolides I, II, and III, and atractyloside A, respectively). Plasma samples (0.3 mL) were collected in heparinized tubes from the orbital sinus at […], 0.25, 0.5, 1, 1.5,2, 3, 4, 6, 8, 10, and 12 h, and were then immediately centrifuged at 17,108× g for 10 min. The supernatant was transferred to clean test tubes and stored at −20 °C until analysis. Pharmacokinetic parameters, including the area under the blood concentration-time curve (AUC0–∞), elimination half-life (t1/2), apparent volume of distribution (Vd/F), and oral clearance (CL/F) were calculated by a noncompartmental method using Drug and Statistics 3.0 (Chinese Pharmacological Society, Shanghai, China). Other parameters were obtained directly from the experimental observations.
# The pharmacokinetic parameters of atractylenolides I, II, and III, and atractyloside A were analyzed by using the one-way ANOVA test with SPSS 17.0 (SPSS Inc., Chicago, IL, USA) and linear regression analysis. The integrated concentrations at each time point for the four compounds were calculated based on the AUC weighting approach using equations (1)–(3). The weighting coefficient (Wj) and the total concentration of each compound (∑AUC0–∞) were calculated by: (1) w1=AUC0–∞/∑AUC0–∞ ∑AUC0–∞ = AUC0–∞ AT-I + AUC0–∞ AT-II + AUC0–∞ AT-III + AUC0–∞ atractyloside A(2)
# [3] = tested on: ear edema induced by xylene; set-up: method as in PMID 19023804; settings: ear edema induced by xylene in mice; cited from earlier work
# [4] = Short-term stability in rat plasma at room temperature; format: in vitro ADME; settings: for RE: room temperature stability; for 0 h Measured C / 4 h Measured C / 6 h Measured C: room temperature
# Procedure: The stabilities of atractylenolides I, II, and III, and atractyloside A in rat plasma were evaluated at three different QC concentrations using six replicates under two conditions, including at 25 °C for 6 h, and three freeze and thaw cycles. Unextracted QC samples of the four compounds at low, medium, and high concentrations were kept at ambient temperature (25 °C) for 6 h to determine the short-term stability of the compounds in rat plasma. The samples were processed and analyzed, and then the concentrations were compared with the nominal values of the QC samples. The stabilities of the plasma samples after three freeze and thaw cycles were determined. In each cycle, the QC samples were stored at −20 °C for 24 h and thawed unassisted at room temperature. When completely thawed, the samples were refrozen within 24 h. The cycle was repeated three times and the samples were analyzed after the third cycle. Stability was assessed by comparing the mean concentration of the stored QC samples with the mean concentration of freshly prepared QC samples.
# [5] = Freeze-thaw stability in rat plasma; format: in vitro ADME; settings: for One Time Measured C / Two Time Measured C / Zero Time Measured C: freeze-thaw (−20 °C / room temperature); for RE: freeze-thaw stability
# Procedure: […] Unextracted QC samples of the four compounds at low, medium, and high concentrations were kept at ambient temperature (25 °C) for 6 h to determine the short-term stability of the compounds in rat plasma. The samples were processed and analyzed, and then the concentrations were compared with the nominal values of the QC samples. […] In each cycle, the QC samples were stored at −20 °C for 24 h and thawed unassisted at room temperature. When completely thawed, the samples were refrozen within 24 h. […] Stability was assessed by comparing the mean concentration of the stored QC samples with the mean concentration of freshly prepared QC samples.
# [6] = tested on: HL-60 cells; settings: via Cu, Zn-superoxide dismutase inhibition; cited from earlier work
# [7] = tested on: rhubarb-induced spleen deficiency; set-up: method as in PMID 24815219; settings: rhubarb-induced spleen deficiency in rats; cited from earlier work
# [8] = rat, in vivo, po, 3.75 g/kg, rat plasma, oral raw Atractylodis Rhizoma 3.75 g/kg, mean ± SD, n = 5
# [9] = rat, in vivo, po, 3.75 g/kg, rat plasma, oral wheat bran-processed Atractylodis Rhizoma 3.75 g/kg, mean ± SD, n = 5
# [10] = high QC: added 140 (atractylenolide I), 200 (II, III), 172 (atractyloside A) ng/mL
# [11] = low QC: added 5.6 (atractylenolide I), 8 (II, III), 6.88 (atractyloside A) ng/mL
# [12] = medium QC: added 28 (atractylenolide I), 40 (II, III), 17.2 (atractyloside A) ng/mL
smiles,measurement,setting,value
C/C=C/C#CC#C/C=C/c1ccco1 [atractylodin],effect of stir-frying the rhizome with wheat bran on absorption,[1],promoted and accelerated the absorption
C=C1CCC[C@]2(C)C[C@]3(O)OC(=O)C(C)=C3C[C@@H]12 [Atractylenolide III],AUC0–t,"[2]; rat, in vivo, po, 3.75 g/kg",284.83 ± 32.94 * h·μg/L
same,Cmax,"[2]; rat, in vivo, po, 3.75 g/kg",113.10 ± 19.04 ng/mL
same,MRT0–∞,"[2]; rat, in vivo, po, 3.75 g/kg",3.07 ± 0.31 h
same,t1/2,"[2]; rat, in vivo, po, 3.75 g/kg",1.81 ± 0.79 h
same,AUC(0-t),"[2]; rat, in vivo, po, 3.75 g/kg",231 ± 76.8 ng·h/mL
same,AUC(0-inf),"[2]; rat, in vivo, po, 3.75 g/kg",233 ng·h/mL
same,Cmax,"[2]; rat, in vivo, po, 3.75 g/kg, Cmax",87 ± 17 ng/mL
same,MRT inf,"[2]; rat, in vivo, po, 3.75 g/kg",3.48 ± 0.29 h
same,Tmax,"[2]; rat, in vivo, po, 3.75 g/kg",1 h
same,half-life,"[2]; rat, in vivo, po, 3.75 g/kg, t1/2",1.56 ± 0.61 h
same,anti-inflammatory activity,[3],inhibition of ear edema
CC(C)(OC1OC(CO)C(O)C(O)C1O)C1CCC(O)(CO)C2CC(=O)C(C)(O)C2C1 (stereo not drawn) [Atractyloside A],"Cmax ratio, wheat bran-processed group vs raw group","[2]; rat plasma, oral 3.75 g/kg",1.20 fold
same,AUC(0-t),[2]; [8],138 ± 60.1 ng·h/mL
same,AUC(0-t),[2]; [9],307 ± 73.8 ng·h/mL
same,AUC(0-inf),"[2]; rat, in vivo, po, 3.75 g/kg, Table 6, rat plasma, oral raw Atractylodis Rhizoma 3.75 g/kg",167 ng·h/mL
same,AUC(0-inf),"[2]; rat, in vivo, po, 3.75 g/kg, Table 6, rat plasma, oral wheat bran-processed Atractylodis Rhizoma 3.75 g/kg",325 ng·h/mL
same,AUC(0-inf),[2]; [8],167 ± 90.1 ng·h/mL
same,AUC(0-inf),[2]; [9],325 ± 72.1 ng·h/mL
same,Cmax,"[2]; rat, in vivo, po, 3.75 g/kg, Cmax, rat plasma, oral raw Atractylodis Rhizoma 3.75 g/kg, mean ± SD, n = 5",57.8 ± 21.6 ng/mL
same,Cmax,"[2]; rat, in vivo, po, 3.75 g/kg, Cmax, rat plasma, oral wheat bran-processed Atractylodis Rhizoma 3.75 g/kg, mean ± SD, n = 5",69.4 ± 8.29 ng/mL
same,MRT inf,[2]; [8],6.05 ± 2.58 h
same,MRT inf,[2]; [9],4.87 ± 0.84 h
same,Tmax,[2]; [8],0.95 ± 0.11 h
same,Tmax,[2]; [9],1.5 h
same,half-life,"[2]; rat, in vivo, po, 3.75 g/kg, t1/2, rat plasma, oral raw Atractylodis Rhizoma 3.75 g/kg, mean ± SD, n = 5",3.95 ± 2.22 h
same,half-life,"[2]; rat, in vivo, po, 3.75 g/kg, t1/2, rat plasma, oral wheat bran-processed Atractylodis Rhizoma 3.75 g/kg, mean ± SD, n = 5",2.55 ± 0.98 h
same,RE,[4]; [10],−0.17%
same,RE,[4]; [11],−6.2%
same,RE,[4]; [12],−0.85%
same,0 h Measured C,[4]; [10],172.31 ng/mL
same,4 h Measured C,[4]; [10],171.50 ng/mL
same,6 h Measured C,[4]; [10],171.32 ng/mL
same,0 h Measured C,[4]; [11],6.81 ng/mL
same,4 h Measured C,[4]; [11],6.41 ng/mL
same,6 h Measured C,[4]; [11],6.14 ng/mL
same,0 h Measured C,[4]; [12],17.16 ng/mL
same,4 h Measured C,[4]; [12],17.02 ng/mL
same,6 h Measured C,[4]; [12],16.98 ng/mL
same,One Time Measured C,[5]; [10],171.48 ng/mL
same,Two Time Measured C,[5]; [10],171.65 ng/mL
same,Zero Time Measured C,[5]; [10],172.73 ng/mL
same,One Time Measured C,[5]; [11],6.38 ng/mL
same,Two Time Measured C,[5]; [11],6.02 ng/mL
same,Zero Time Measured C,[5]; [11],6.39 ng/mL
same,One Time Measured C,[5]; [12],17.36 ng/mL
same,Two Time Measured C,[5]; [12],17.02 ng/mL
same,Zero Time Measured C,[5]; [12],17.86 ng/mL
same,RE,[5]; [10],−0.03%
same,RE,[5]; [11],−8.96%
same,RE,[5]; [12],1.24%
C=C1CCC[C@]2(C)C=C3OC(=O)C(C)=C3C[C@@H]12 [Atractylenolide I],anti-inflammatory activity,[3],inhibition of ear edema
same,anticancer activity (apoptosis),[6],inducing apoptosis
same,treatment of spleen deficiency,[7],can be used to treat rhubarb-induced spleen deficiency
